We go through three molecules from patent publication US4873225A, “1-n-(4-amino-3-fluoro-2-hydroxybutyryl)-kanamycins” (Zaidan Hojin Biseibutsu Kagaku Kenkyu Kai, priority 1987, dated 1989).

For series [1], the system named is gram-positive bacteria, gram-negative bacteria and various kanamycin-resistant strains of bacteria. As to the kind of experiment: Antibacterial activity in vitro, in words. Format: cell-based. As to conditions: tested in vitro. On the procedure: The present inventors have carried out an extensive investigation in an attempt to produce such novel kanamycin derivatives which are capable of fulfilling such demands. […] The present invention has been completed on the basis of these above findings.
(§1) Antibacterial activities of each of the abovementioned compounds of the general formula (I) according to this invention were determined by measuring their minimum growth inhibitory concentrations (MIC, mcg/ml) against various bacteria in accordance with a standard serial dilution method. The pH condition of the incubation medium where the MIC data were measured was set at pH 7, unless otherwise specifically indicated. For the sake of comparison, the antibacterial spectra of 1-N-{(S)-4-amino-2-hydroxybutyryl}kanamycin A (i.e., amikacin) and 1-N-{(S)-4-amino-2-hydroxybutyryl}-3,4-dideoxykanamycin B (i.e., habekacin) were also measured in the same manner.

In series [2] the test system is Staphylococcus epidermidis 109. As to conditions: reported in earlier applications; cited from earlier work.
For series [3], the system named is Staphylococcus aureus Ap 01. As to conditions: reported in earlier applications; cited from earlier work.
Another series has as its system mice. As to the kind of experiment: Acute toxicity against mice. Format: in vivo. As to conditions: orally administered, 150 mg/kg.
The test system of series [4] is Pseudomonas aeruginosa TI 13. Kind of series: MIC, standard serial dilution method. As to conditions: Pseudomonas aeruginosa, read-out: MIC. Format: cell-based. On the procedure:
as §1
(§2) (a) The antibacterial activities of the compounds of this invention are not decreased practically even under pH conditions of pH […] as compared to their antibacterial activities under neutral conditions of pH 7.

Series [5] concerns Escherichia coli JR66/W677. As to the kind of experiment: MIC, standard serial dilution method. Format: cell-based. As to conditions: Escherichia coli, read-out: MIC. The protocol:
as §1, §2

Series [6] deals with Staphylococcus aureus Ap01. As to the kind of experiment: MIC, standard serial dilution method. As to conditions: AP01, pH 7, read-out: MIC. Format: cell-based. On the procedure: as §1
The test system of another series is Escherichia coli JR 225. Kind of series: MIC, standard serial dilution method. As to conditions: JR225, pH 7. The series is classed as cell-based. The protocol: as §1
In a further series the test system is Serratia marcescens. Kind of series: MIC, standard serial dilution method. Format: cell-based. As to conditions: pH 7, read-out: MIC. On the procedure:
as §1

Series [7] has as its system Klebsiella pneumoniae 22 #3038. Kind of series: MIC, standard serial dilution method. As to conditions: pH 7, read-out: MIC. The series is classed as cell-based. On the procedure:
as §1

Series [8] deals with Pseudomonas aeruginosa A3. Kind of series: MIC, standard serial dilution method. The series is classed as cell-based. As to conditions: A3, pH 7, read-out: MIC. On the procedure: as §1
Series [9] has as its system Escherichia coli K-12 ML 1629. As to the kind of experiment: MIC, standard serial dilution method. Format: cell-based. As to conditions: K12ML1629, pH 7, read-out: MIC. The protocol:
as §1

In series [10] the test system is Corynebacterium bovis 1810. Kind of series: MIC, standard serial dilution method. The series is classed as cell-based. As to conditions: Corynebacterium bovis, 1810, pH 7; read-out: MIC. On the procedure:
as §1

Series [11] has as its system Pseudomonas aeruginosa GN 315. Kind of series: MIC, standard serial dilution method. The series is classed as cell-based. As to conditions: GN315, pH 7. The protocol: as §1
Another series deals with Proteus rettgeri GN 311. As to the kind of experiment: MIC, standard serial dilution method. As to conditions: Providencia rettgeri, GN311, pH 7; read-out: MIC. Format: cell-based. The protocol: as §1
The next series deals with Providencia sp. Pv 16. As to the kind of experiment: MIC, standard serial dilution method. The series is classed as cell-based. As to conditions: SP.PV16, pH 7, read-out: MIC. On the procedure: as §1
Series [12] relates to Escherichia coli K-12 LA 290 R55. Kind of series: MIC, standard serial dilution method. The series is classed as cell-based. As to conditions: K12LA290R55, pH 7. The protocol:
as §1

A further series has as its system Escherichia coli K-12. Kind of series: MIC, standard serial dilution method. Format: cell-based. As to conditions: K12, pH 7. On the procedure: as §1
The test system of a further series is Bacillus subtilis PCI219. Kind of series: MIC, standard serial dilution method. The series is classed as cell-based. As to conditions: PCI219, pH 7, read-out: MIC. The protocol:
as §1

The test system of the next series is Mycobacterium 607. As to the kind of experiment: MIC, standard serial dilution method. The series is classed as cell-based. As to conditions: Mycobacterium, 607, pH 7; read-out: MIC. On the procedure:
as §1

In series [13] the test system is Staphylococcus aureus 209P. As to the kind of experiment: MIC, standard serial dilution method. The series is classed as cell-based. As to conditions: pH 7, read-out: MIC. On the procedure:
as §1

The test system of another series is Escherichia coli K-12 R5. As to the kind of experiment: MIC, standard serial dilution method. Format: cell-based. As to conditions: K12R5, pH 7. The protocol:
as §1
Infectious diseases by Escherichia coli K-12 R5 tend to increase in recent days. The compounds of this invention are therefore important for the therapeutic treatment of bacterial infections.

Molecules are shown by their SMILES. Converted amounts (≈) assume the structure as drawn. Like-named read-outs stand apart in the source and are kept apart here.

With `NC[C@H](F)[C@H](O)C(=O)N[C@@H]1C[C@H](N)[C@@H](O[C@H]2O[C@H](CN)[C@@H](O)[C@H](O)[C@H]2N)[C@H](O)[C@H]1O[C@H]1O[C@H](CO)[C@@H](O)[C@H](N)[C@H]1O` [1-N-{(2R,3S)-4-amino-3-fluoro-2-hydroxybutyryl}kanamycin B], the “enhancement in antibacterial activities” value in series [1] is given as “did not show any enhancement in antibacterial activities”.

Consider `NC[C@@H]1C[C@H](F)[C@@H](N)[C@@H](O[C@H]2[C@H](O)[C@@H](O[C@H]3O[C@H](CO)[C@@H](O)[C@H](N)[C@H]3O)[C@H](N)C[C@@H]2N)O1` [3',4'-dideoxy-3'-fluorokanamycin B], for which the “effective against resistant strain” value in series [2] and in series [3] was “effective against such certain resistant strains of bacteria” throughout.

In general, MIC refers to the lowest concentration that inhibits growth of the organism. In the case of `NC[C@@H](F)[C@H](O)C(=O)N[C@@H]1C[C@H](N)[C@@H](O[C@@H]2CC[C@H](O)[C@@H](CN)O2)[C@H](O)[C@H]1O[C@H]1O[C@H](CO)[C@@H](O)[C@H](N)[C@H]1O` [Invention Compound No. 2, 1-N-{(2R,3R)-4-Amino-3-fluoro-2-hydroxybutyryl}-2',3'-dideoxykanamycin A], in the series with mice, the survival of mice result is “all mice surrived”. In addition, the minimum inhibitory concentration (MIC) was found to be 3.12 µg/mL (≈ 5.46 µM) in [4] (TI13, pH 7); 3.12 µg/mL (≈ 5.46 µM) in [4] (TI13, measured at pH 6); 1.56 µg/mL (≈ 2.73 µM) in series [5] (JR66/W677, pH 7); 6.25 µg/mL (≈ 10.9 µM) in [5] (JR66/W677, measured at pH 6); 1.56 µg/mL (≈ 2.73 µM) in [6]; 0.39 µg/mL (≈ 0.682 µM) against Escherichia coli JR 225. For the same molecule, the MIC in the series with Serratia marcescens was 3.12 µg/mL (≈ 5.46 µM); in series [7], 3.12 µg/mL (≈ 5.46 µM); in [8], 0.78 µg/mL (≈ 1.36 µM); in series [9], 0.78 µg/mL (≈ 1.36 µM); in series [10], 0.78 µg/mL (≈ 1.36 µM); in series [11], 12.5 µg/mL (≈ 21.9 µM). Moreover, the MIC with Proteus rettgeri GN 311 was 0.78 µg/mL (≈ 1.36 µM); with Providencia sp. Pv 16 it was 1.56 µg/mL (≈ 2.73 µM); in series [12] it was 0.78 µg/mL (≈ 1.36 µM); in the series with Escherichia coli K-12, 0.39 µg/mL (≈ 0.682 µM); in the series on Bacillus subtilis PCI219, 0.78 µg/mL (≈ 1.36 µM); in the series with Mycobacterium 607, 1.56 µg/mL (≈ 2.73 µM). For the same molecule, the MIC stood at 0.2 µg/mL (≈ 0.35 µM) in [13] and 6.25 µg/mL (≈ 10.9 µM) in the series on Escherichia coli K-12 R5.
